Here are results for 17 compounds from patent US20240150293A1, “SPIROCYCLOHEXANE DERIVATIVES, PHARMACEUTICAL COMPOSITIONS CONTAINING THEM AND THEIR USES AS ANTI-APOPTOTIC INHIBITORS” (LES LABORATOIRES SERVIER, priority 2021, published 2024).

Read-outs that look alike come from different tables or passages of the source.

In assay [1] the target is Cy5-labelled Mcl1 (amino acids 171-321) C286S protein (UniProtKB Q07820) (Homo sapiens (Human), UniProt Q07820, C286S). In words: Inhibition of Mcl-1 by the fluorescence quenching assay (Example A, Method B). The format is binding. Put shortly:
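Eleven-point compound series incubated 2 h at room temperature with 1 nM Cy5-tagged protein and quencher-labelled PUMA peptide at 10, 20 or 400 nM in HEPES/NaCl/Tween 20, pH 7.4, 5% DMSO. IC50 for 50% fluorescence increase by 4-parameter fit, then Ki derived (complete cKi or estimated eKi).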

Assay [2] deals with NCI-H929 cell lines. Kind of assay: In vitro cytotoxicity, CellTiter-Glo (CTG) assay (Example B, Method B). The assay is classed as cell-based. To be noted: NCI-H929 cells, 48 h incubation, read-out: C50. How it is done: Cellular viability was monitored with the cell viability assay (Cell Titer-Glo®) on NCI-H929 cell lines. The CellTiter-Glo® (CTG) Luminescent Cell Viability Assay (from Promega) is a homogeneous method to determine the number of viable cells in culture based on quantitation of the ATP present, which signals the presence of metabolically active cells.
Concentration response of test compounds are performed with 10 mM stock solutions (DMSO), 11-points curve, in a 384-well compound plate. The assay plate is prepared by stamping 120 nL from compound dilution plate of all different concentrations (e.g. 10 mM to have final 30 μM assay test) into a cell culture microplate, using Echo acoustic liquid handling (Labcyte, Beckman). 40 μl of cell solution is added and cells are incubated with compounds for 48 h at 37° C., 5% CO2. CTG was added to the cells (according to the manufacturer instructions) and luminescence intensity was recorded using the Pherastar plate reader (BMG).
This assay provides in vitro cellular efficacy of compounds of Formula (I) tested, measuring the C50, defined as the concentration needed to reach 50% of the cellular viability.
(In general: ATP-based viability assays read luminescence as a measure of living cells.)

Assay [3] concerns H929 multiple myeloma tumor line. In words: In vitro cytotoxicity, MTT assay (Example B, Method A). As to conditions: Homo sapiens, NCI-H929, 48 h, H929 cells, 48 hours exposure, read-out: C50. The format is cell-based. How it is done: The cytotoxicity studies were carried out on the H929 multiple myeloma tumor line.
The cells are distributed onto microplates and exposed to the test compounds for 48 hours. The cell viability is then quantified by a colorimetric assay, the Microculture Tetrazolium Assay (Carmichael et al, Cancer Res. 1987, 47, 939-942).
The results are expressed in C50 which means concentration corresponding to […] of effect/inhibition.
For orientation: Tetrazolium assays rely on reduction of a dye to a coloured formazan, in cell work by metabolically active cells.

Sequence of Cy5-labelled Mcl1 (amino acids 171-321) C286S protein (Q07820 171-321 C286S): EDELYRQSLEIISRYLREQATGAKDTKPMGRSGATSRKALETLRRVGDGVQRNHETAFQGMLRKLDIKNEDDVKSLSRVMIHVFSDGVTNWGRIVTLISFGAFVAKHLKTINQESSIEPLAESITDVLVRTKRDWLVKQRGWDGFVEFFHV

In the case of `CCC(=O)OC(C)OC(=O)[C@]1(Nc2cccc(Cl)c2)CC[C@@]2(CC1)c1cc3c(cc1C[C@@H]2C[C@@H](C)COc1ccnc2c1[C@H](C)CCC2)OCO3` (stereo partly drawn) [Example 940, 1-(propanoyloxy)ethyl (1r,4S,6′S)-4-(3-chloroanilino)-6′-[(2R)-2-methyl-3-{[(5R)-5-methyl-5,6,7,8-tetrahydroquinolin-4-yl]oxy}propyl]-6′,7′-dihydro-2′H-spiro[cyclohexane-1,5′-indeno[5,6-d][1,3]dioxole]-4-carboxylate], the Ki in assay [1] turned out to be 2.52 nM. Moreover, the IC50 in assay [2] (Homo sapiens, NCI-H929, 48 h) was found to be 266 nM. As for `CC1COc2cc3c(cc2OC1)[C@]1(CC[C@@](Nc2cccc(Cl)c2)(C(=O)O)CC1)[C@@H](C[C@@H](C)COc1ccnc2c1[C@H](C)CCC2)C3` (single isomer, unassigned) [Example 983], the inhibitory constant (Ki) in assay [1] was determined as 0.037 nM. In addition, in assay [2], the IC50 worked out at 74.4 nM.

Regarding `C[C@@H](COc1ccnc2c1[C@H](C)CCC2)C[C@H]1Cc2cc3c(cc2[C@]12CC[C@@](Nc1cccc(Cl)c1)(C(=O)O)CC2)CCO3` [Example 851, (1r,4S,6′S)-4-(3-chloroanilino)-6′-[(2R)-2-methyl-3-{[(5R)-5-methyl-5,6,7,8-tetrahydroquinolin-4-yl]oxy}propyl]-2′,3′,6′,7′-tetrahydrospiro[cyclohexane-1,5′-indeno[5,6-b]furan]-4-carboxylic acid], the Ki in assay [1] worked out at 0.0256 nM. For the same compound, the IC50 in assay [2] (Homo sapiens, NCI-H929, 48 h) came out at 34.9 nM. The matching figures for `CC[C@H]1COc2cc3c(cc2O1)C[C@H](C[C@@H](C)COc1ccnc2c1[C@H](C)CCC2)[C@]31CC[C@](Nc2cccc(Cl)c2)(C(=O)O)CC1` [Example 978, (1r,2′S,4S,7′S)-4-(3-chloroanilino)-2′-ethyl-7′-[(2R)-2-methyl-3-{[(5R)-5-methyl-5,6,7,8-tetrahydroquinolin-4-yl]oxy}propyl]-2′,3′,7′,8′-tetrahydrospiro[cyclohexane-1,6′-indeno[5,6-b][1,4]dioxine]-4-carboxylic acid]: 0.0831 nM and 164 nM. As for `C[C@@H](COc1ccnc2c1[C@H](C)CCC2)CN1Cc2cc3c(cc2[C@]12CC[C@](Nc1ccc(F)c(Cl)c1)(C(=O)O)CC2)OCO3` [Example 48, (1r,4R)-4-(3-chloro-4-fluoroanilino)-6′-[(2R)-2-methyl-3-{[(5R)-5-methyl-5,6,7,8-tetrahydroquinolin-4-yl]oxy}propyl]-6′,7′-dihydro-2′H-spiro[cyclohexane-1,5′-[1,3]dioxolo[4,5-f]isoindole]-4-carboxylic acid], in assay [1] (Ki determined from IC50), the Ki was 104 nM. Also, the IC50 in assay [2] (Homo sapiens, NCI-H929, 48 h) came to 21500 nM. The corresponding values for `Cc1c(Cl)cccc1N[C@]1(C(=O)O)CC[C@]2(CC1)c1ccc(F)cc1CN2C[C@@H](C)COc1ccnc2c1[C@H](C)CCC2` [Example 52, (1s,4S)-4-(3-chloro-2-methylanilino)-5′-fluoro-2′-[(2R)-2-methyl-3-{[(5R)-5-methyl-5,6,7,8-tetrahydroquinolin-4-yl]oxy}propyl]-2′,3′-dihydrospiro[cyclohexane-1,1′-isoindole]-4-carboxylic acid] are 0.583 nM and 454 nM. For the compound `Cc1oc(=O)oc1COC(=O)[C@]1(Nc2cccc(Cl)c2)CC[C@@]2(CC1)c1cc3c(cc1C[C@@H]2C[C@@H](C)COc1ccnc2c1[C@H](C)CCC2)OCO3` [Example 938, (5-methyl-2-oxo-2H-1,3-dioxol-4-yl)methyl (1r,4S,6′S)-4-(3-chloroanilino)-6′-[(2R)-2-methyl-3-{[(5R)-5-methyl-5,6,7,8-tetrahydroquinolin-4-yl]oxy}propyl]-6′,7′-dihydro-2′H-spiro[cyclohexane-1,5′-indeno[5,6-d][1,3]dioxole]-4-carboxylate], in assay [1], the Ki amounted to 2.43 nM. In assay [2] (Homo sapiens, NCI-H929, 48 h), the IC50 was 44.2 nM. For `CCC1COc2cc3c(cc2OC1)[C@]1(CC[C@@](Nc2cccc(Cl)c2)(C(=O)O)CC1)[C@@H](C[C@@H](C)COc1ccnc2c1[C@H](C)CCC2)C3` (single isomer, unassigned) [Example 988], the inhibition constant (Ki) in assay [1] came out at 0.0323 nM. The IC50 in assay [2] came to 204 nM.

As for `COc1ccccc1-c1ccc2c(c1)[C@]1(CC[C@@](Nc3cccc(Cl)c3)(C(=O)O)CC1)[C@@H](C[C@@H](C)COc1ccnc3c1[C@H](C)CCC3)C2` [Example 876, (1r,2′S,4S)-4-(3-chloroanilino)-6′-(2-methoxyphenyl)-2′-[(2R)-2-methyl-3-{[(5R)-5-methyl-5,6,7,8-tetrahydroquinolin-4-yl]oxy}propyl]-2′,3′-dihydrospiro[cyclohexane-1,1′-indene]-4-carboxylic acid], the Ki in assay [1] came out at 0.399 nM. In addition, in assay [2] (Homo sapiens, NCI-H929, 48 h), the IC50 was found to be 307 nM. As to `COCCOc1cc2c(cc1Cl)C[C@H](C[C@@H](C)COc1ccnc3c1[C@H](C)CCC3)[C@]21CC[C@](Nc2cccc(Cl)c2)(C(=O)O)CC1` [Example 822, (1r,2′S,4S)-5′-chloro-4-(3-chloroanilino)-6′-(2-methoxyethoxy)-2′-[(2R)-2-methyl-3-{[(5R)-5-methyl-5,6,7,8-tetrahydroquinolin-4-yl]oxy}propyl]-2′,3′-dihydrospiro[cyclohexane-1,1′-indene]-4-carboxylic acid], the inhibitory constant (Ki) in assay [1] came out at 0.149 nM. Moreover, in assay [2] (Homo sapiens, NCI-H929, 48 h), the IC50 was 64.1 nM. Turning to `COCc1cc2c(cc1F)C[C@H](C[C@@H](C)COc1ccnc3c1[C@H](C)CCC3)[C@]21CC[C@](Nc2cccc(Cl)c2)(C(=O)O)CC1` [Example 921, (1r,2′S,4S)-4-(3-chloroanilino)-5′-fluoro-6′-(methoxymethyl)-2′-[(2R)-2-methyl-3-{[(5R)-5-methyl-5,6,7,8-tetrahydroquinolin-4-yl]oxy}propyl]-2′,3′-dihydrospiro[cyclohexane-1,1′-indene]-4-carboxylic acid], in assay [1], the Ki amounted to 0.0108 nM. Further, the IC50 in assay [2] (Homo sapiens, NCI-H929, 48 h) came out at 35.9 nM.

On to `C[C@@H](COc1ccnc2c1[C@H](C)CCC2)C[C@H]1Cc2cc3c(cc2[C@]12CC[C@@](Nc1cccc(Cl)c1)(C(=O)O)CC2)CCC3` [Example 852, (1r,2′S,4S)-4-(3-chloroanilino)-2′-[(2R)-2-methyl-3-{[(5R)-5-methyl-5,6,7,8-tetrahydroquinolin-4-yl]oxy}propyl]-3′,5′,6′,7′-tetrahydro-2′H-spiro[cyclohexane-1,1′-[s]indacene]-4-carboxylic acid], for which the Ki in assay [1] is 0.0896 nM. In assay [2] (Homo sapiens, NCI-H929, 48 h), the IC50 is 235 nM. For `C[C@@H](COc1ccnc2c1[C@H](C)CCC2)C[C@H]1Cc2cc3c(cc2[C@]12CC[C@@](Nc1cccc(Cl)c1)(C(=O)N(C)C)CC2)OCO3` [Example 956, (1r,4S,6′S)-4-(3-chloroanilino)-N,N-dimethyl-6′-[(2R)-2-methyl-3-{[(5R)-5-methyl-5,6,7,8-tetrahydroquinolin-4-yl]oxy}propyl]-6′,7′-dihydro-2′H-spiro[cyclohexane-1,5′-indeno[5,6-d][1,3]dioxole]-4-carboxamide], in assay [2] (Homo sapiens, NCI-H929, 48 h), the IC50 was determined as 14500 nM. As for `C[C@@H](COc1ccnc2c1[C@H](C)CCC2)C[C@H]1Cc2cc3c(cc2[C@]12CC[C@@](Nc1cccc(Cl)c1)(C(N)=O)CC2)OCO3` [Example 954, (1r,4S,6′S)-4-(3-chloroanilino)-6′-[(2R)-2-methyl-3-{[(5R)-5-methyl-5,6,7,8-tetrahydroquinolin-4-yl]oxy}propyl]-6′,7′-dihydro-2′H-spiro[cyclohexane-1,5′-indeno[5,6-d][1,3]dioxole]-4-carboxamide], the IC50 in assay [2] (Homo sapiens, NCI-H929, 48 h) was determined as 2790 nM. Consider `CNC(=O)[C@]1(Nc2cccc(Cl)c2)CC[C@@]2(CC1)c1cc3c(cc1C[C@@H]2C[C@@H](C)COc1ccnc2c1[C@H](C)CCC2)OCO3` [Example 955, (1r,4S,6′S)-4-(3-chloroanilino)-N-methyl-6′-[(2R)-2-methyl-3-{[(5R)-5-methyl-5,6,7,8-tetrahydroquinolin-4-yl]oxy}propyl]-6′,7′-dihydro-2′H-spiro[cyclohexane-1,5′-indeno[5,6-d][1,3]dioxole]-4-carboxamide], for which, in assay [2] (Homo sapiens, NCI-H929, 48 h), the IC50 stood at 11300 nM.

On to `C[C@@H](COc1ccnc2c1[C@@H](C)CCC2)C[C@H]1Cc2ccccc2[C@]12CC[C@@](Cc1cccc(Cl)c1)(C(=O)O)CC2` [Example 719, (1s,2′S,4R)-4-[(3-chlorophenyl)methyl]-2′-[(2R)-2-methyl-3-{[(5S)-5-methyl-5,6,7,8-tetrahydroquinolin-4-yl]oxy}propyl]-2′,3′-dihydrospiro[cyclohexane-1,1′-indene]-4-carboxylic acid], for which the Ki in assay [1] was determined as 1450 nM. For the same compound, in assay [3], the IC50 was 13200 nM.

For the compound `C[C@@H](COc1ccncc1C1CC1)C[C@H]1Cc2ccccc2[C@]12CC[C@@](Nc1cccc(Cl)c1)(C(=O)O)CC2` [Example 577, (1r,2′S,4S)-4-(3-chloroanilino)-2′-{(2R)-3-[(3-cyclopropylpyridin-4-yl)oxy]-2-methylpropyl}-2′,3′-dihydrospiro[cyclohexane-1,1′-indene]-4-carboxylic acid], the Ki in assay [1] was found to be 10.4 nM. Further, the IC50 in assay [3] is 1190 nM.

What is called Ki is a measure of affinity in units of concentration, obtained from inhibition or displacement.
